Converted amounts (≈) assume the structure as drawn. “Also recorded” adds a separate entry of the source.
Tests used:
[1] = Solubility; format: physicochemical; conditions: for solubility: read-out: solubility limit
[2] = molecular target: T1, wild-type Shaker (E422) (Drosophila melanogaster, UniProt P08510, DEL6-46); assay: PAL photoswitching, whole-cell patch clamp in HEK293 cells; format: cell-based
T1 construct: expressed in transfected cells; host or cells: HEK293
Protocol: Cell culture and transfection. HEK293 cells were grown in DMEM containing 5% fetal bovine serum, at 37° C., 7% CO2. For electrophysiology, cells were plated at 12×10^5 cells/cm^2 on poly-L-lysine coated coverslips and transfected using the calcium phosphate method. Recordings were performed 24-36 hours after transfection.
(§1) PAL attachment. HEK293 and hippocampal cells were rinsed in extracellular solution containing in mM: 138 NaCl, 1.5 KCl, 1.2 MgCl2, 2.5 CaCl2, 5 HEPES, 10 glucose and incubated at 37° C. in the dark with 200-250 μM PAL for 15 minutes. For slices, AAQ was diluted to 200 μM in aCSF and treatment was performed in the dark at room temperature for 10 minutes.
Electrophysiological recording. Recordings from HEK293 and hippocampal neurons were made in the whole-cell patch clamp configuration using a PC-501A amplifier (Warner Instruments). Pulse protocols and measurements were carried out with pCLAMP and a Digidata 1322 interface (Axon Instruments). For voltage-clamp experiment, cells were held at −70 mV. Data was recorded at 20 kHz and filtered at 2 kHz. Recording pipettes with 2.5-4 MΩ resistance were filled with intracellular solution containing in mM: 10 NaCl, 135 K-gluconate, 10 HEPES, 2 MgCl2, 2 MgATP, 1 EGTA, pH 7.4.
Illumination was provided using a xenon lamp (Sutter Instruments) with narrow band pass filters (380 BP10 for UV and 500 BP5 for visible light respectively). Excitation filters were changed using a lambda 10-2 filter changer (Sutter Instruments) controlled via pCLAMP software.
Percent photoswitching was defined as the difference between current in UV and visible light divided by current in UV. All data shown in bar graphs are averages±standard error of the mean.

[3] = system: cultured hippocampal neurons; assay: Live/Dead assay after PAL treatment; format: cell-based; conditions: 200 μM
Source text: Live/Dead assay. After PAL treatment, hippocampal neurons were processed for the live dead assay (Molecular Probes) according to the manufacturer's instructions. Cells were counted in 4-8 fields for each treatment condition.

[4] = molecular target: T2, iGluR6 (Rattus norvegicus, UniProt P42260); assay: Calcium imaging of iGluR6 activity in HEK293 cells; format: cell-based
T2 construct: expressed in transfected cells; host or cells: HEK293
Protocol: HEK293 cells were plated at approximately 3×10^6 cells/ml on poly-L-lysine-coated glass coverslips (Deutsche Spiegelglas, Carolina Biological) and maintained in DMEM with 5% fetal bovine serum, 0.2 mg/ml streptomycin, and 200 U/ml penicillin at 37° C. Cells were transiently transfected with various plasmids using lipofectamine 2000 (Invitrogen). The amount of total transfected iGluR6 DNA and enhanced yellow fluorescent protein (EYFP) fusion DNA per well was fixed at 4 μg and 200 ng, respectively. All recordings were carried out 36 to 48 h after transfection.
—Cells were washed in PBS and loaded with 5 μM FURA-2-AM (Molecular Probes) for 30 min. […] Fluorescence was monitored on an inverted microscope system (Nikon). […] L-Glutamate was applied as reported in text and figures. The results are representative data from multiple cells in at least two independent cultures.

[5] = Photostationary state determination by NMR; format: physicochemical; conditions: MAG-1 conjugated to β-mercaptoethanol, D2O
Protocol: Cis-trans photoisomerization of MAG-1 conjugated with β-mercaptoethanol (see Supplementary Methods online) was studied by ^1H NMR, with in situ irradiation of sample using a Polychrom V system monochromator (Till Photonics) containing a 150 W Xenon short arc lamp with an output range of 320-680 nm (29). The half-power bandwidth was 14 nm. A 500 μl aliquot of a 100 μM sample in D2O was prepared in a screw-capped 528-TR-7 NMR tube (Wilmad). A FT-600-UMT fiber optic cable (NA 0.39) (Thorlabs) was coupled at one end to the monochromator using a custom fitting and the other end inserted into the NMR tube a few millimeters above the solution. Each sample was irradiated at the desired wavelength for 30 minutes to reach the photostationary state and 480 scans were required to obtain reasonable signal-to-noise ratios. The output from the fiber optic cable between 340-480 nm ranged from 0.3-9.0 μW/cm^2. Data were processed by isolating aromatic cis-trans ^1H signals and summing their integrals to 1.0. All data were obtained in triplicate and averaged. This analysis will be detailed further in a future paper by Banghart, M. R. et al. (in preparation).

[6] = system: hippocampal neurons; assay: Live-Dead viability/cytotoxicity assay after MAG exposure; conditions: 12 hours continuous exposure, several concentrations; listed as MAG
Protocol: Neuronal survival following 12 hours of continuous exposure to several concentrations of MAG was also examined.

[7] = system: Purkinje neurons; assay: Loose-patch extracellular recording in cerebellar slices; format: cell-based, rat; conditions: gabazine added
Protocol: Brain Slice Preparation. Parasagittal cerebellar slices were prepared using standard techniques approved by the UCLA Animal Care Committee. […] PAL attachment. […] For cerebellar slices, neuronal cell bodies were visualized using an upright microscope with a 40× water immersion lens and equipped with an infrared-DIC enhancement. Loose-patch extracellular recordings were performed using an Axopatch 200B amplifier (Axon Instruments). Electrophysiological recordings were filtered at 1 KHz and digitized at 2-4 KHz. Pipettes were typically 1.4-2.0 MΩ for recordings from PNs and 3.0-3.5 MΩ for interneurons and filled with aCSF. […] All recordings were performed at room temperature. […] Excitation filters were changed using a lambda 10-2 filter changer (Sutter Instruments) controlled via pCLAMP software.

[8] = molecular target: Shaker H4 (Δ6-46, E422C, T449V) (Drosophila melanogaster, UniProt P08510, DEL6-46/E422C/T449V); assay: Patch recordings of MAL-AZO-QA-modified Shaker channels in Xenopus oocytes; format: cell-based
Protocol: Xenopus oocytes were injected with […] of mRNA encoding Shaker H4, with the following mutations: Δ6-46, E422C, T449V. […] Devitillenized oocytes were recorded from 2-10 days post-injection using standard patch-clamp methods. For outside-out patches, glass patch pipettes (2-4 MΩ) were filled with a solution containing (in mM) 100 KCl, 10 HEPES, 0.1 CaCl2, 0.5 MgCl2, and 10 EGTA, while the bath contained 10 KCl, 90 NaCl, 10 HEPES, 0.1 CaCl2, 0.5 MgCl2, and 10 EGTA. For inside-out patches, patch pipettes and bath both contained 100 KCl, 10 HEPES, 0.1 CaCl2, 0.5 MgCl2, and 10 EGTA. The pH of all solutions was 7.1. Solid MAL-AZO-QA was dissolved as a concentrated stock solution in DMSO and stored at −20° C. until the day of use. Stocks were diluted into oocyte bath solution to final concentrations of 10 μM or 100 μM. […] Pulse protocols and measurements were performed with pCLAMP software, a DigiData 1200 series interface, and a PC-505 amplifier (Warner Instruments). Samples were taken at 10 kHz and the data was filtered at 1 kHz. Patches were held at −90 mV, pulsed to −100 mV for 60 msec to monitor leak, and pulsed to −20 mV for 30-100 msec at 1 Hz to elicit Shaker currents. The peak of the Shaker currents was measured to minimize the contribution of slow inactivation. Patches with a leak conductance>100 pS were not included in analysis.
Discrete wavelengths of light (+/−10 nm) were focused on patches through a quartz coverslip with a Fluor 20×, 0.5 NA objective lens (Nikon). Output intensity was measured for wavelengths between 300 and 600 nm. The measured output intensities for wavelengths between 340-600 nm ranged from 0.324e-8 to 6.23e-8 W/cm^2. Differences in light intensities at different wavelengths were taken into account when determining action spectra for channel block and unblock.

[9] = system: hippocampal pyramidal neurons transfected with the multiply-mutated Shaker channel; assay: Current clamp recordings from cultured hippocampal neurons treated with MAL-AZO-QA; format: cell-based, rat
Protocol: Primary dissociated hippocampal cultures were prepared from E18-19 Sprague-Dewey rat embryos and grown on glass cover slips in serum-containing media and incubated in 7% CO2 in air at 37° C. Cells were co-transfected with GFP along with the modified Shaker channel described above with additional L366A and V454L mutations. Transfections with Lipofectamine 2000™ were performed at 12-14 DIV. About 10% of the cultured neurons appeared GFP-positive at 2-3 days after transfection. Coverslips containing the neurons were treated at 37° C. for 15 min with 300 μM MAL-AZO-QA in an extracellular recording solution containing (in mM) 135 NaCl, 5 KCl, 1.2 MgCl2, 5 HEPES, 2.5 CaCl2, and 10 glucose at pH 7.4. Patch pipettes (7-10 MΩ) were filled with 10 NaCl, 135 K-gluconate, 10 HEPES, 2 MgCl2, 2 Mg-ATP, and 1 EGTA at pH 7.4. After washout of MAL-AZO-QA with extracellular solution, membrane potential was recorded at room temperature under whole-cell current clamp with an AXOPATCH 200A amplifier (Axon Instruments) and filtered at 10 kHz. Initial recordings were made at resting potential to evaluate the effects of light on spontaneous activity. In experiments where we wanted to quantify the effect of light on firing (e.g. FIG. 4b), cultures were treated with 6-cyano-7-nitroquinoxaline-2,3-dione (CNQX) (1 μM) and bicuculline (10 μM) to silence synaptic activity. Baseline currents were adjusted to set the membrane potential at −50 mV before depolarizing current steps ranging from 0.01-0.03 nA were applied to evoke action potentials. Cells were irradiated with a Lambda-LS illuminator containing a 125 watt xenon arc lamp (Sutter Instruments Company), equipped with narrow bandpass (+/−10 nm) filters through a Fluor 20×, 0.5 NA objective lens (Nikon). Variability among data is expressed as mean+/−SEM, unless noted otherwise.

[10] = system: voltage-gated outward current (endogenous K+ channels) in cultured hippocampal neurons; assay: Photocontrol of K+ current in cultured hippocampal neurons; format: cell-based, rat; conditions: 200 μM, 15 min in the dark
Protocol: Hippocampal neurons were prepared from neonatal Sprague-Dawley rats according to standard procedures (Goslin) and grown on poly-L-lysine coated coverslips in MEM supplemented with 5% fetal bovine serum, B27 (Invitrogen), glutamine and serum extender (BD Biosciences). Animal care and experimental protocols were approved by the UC Berkeley Animal Care and Use Committee. Recordings were performed 9-16 days after plating. The Shaker construct also contains an N-terminal deletion (Δ6-46) to minimize fast inactivation.
as §1
Electrophysiological recording. Recordings from HEK293 and hippocampal neurons were made in the whole-cell patch clamp configuration using a PC-501A amplifier (Warner Instruments). Pulse protocols and measurements were carried out with pCLAMP and a Digidata 1322 interface (Axon Instruments). For voltage-clamp experiment, cells were held at −70 mV. Data was recorded at 20 kHz and filtered at 2 kHz. […]

Chain of Shaker H4 (Δ6-46, E422C, T449V) (P08510 other isoform, or with tags, fused parts or gaps DEL6-46/E422C/T449V): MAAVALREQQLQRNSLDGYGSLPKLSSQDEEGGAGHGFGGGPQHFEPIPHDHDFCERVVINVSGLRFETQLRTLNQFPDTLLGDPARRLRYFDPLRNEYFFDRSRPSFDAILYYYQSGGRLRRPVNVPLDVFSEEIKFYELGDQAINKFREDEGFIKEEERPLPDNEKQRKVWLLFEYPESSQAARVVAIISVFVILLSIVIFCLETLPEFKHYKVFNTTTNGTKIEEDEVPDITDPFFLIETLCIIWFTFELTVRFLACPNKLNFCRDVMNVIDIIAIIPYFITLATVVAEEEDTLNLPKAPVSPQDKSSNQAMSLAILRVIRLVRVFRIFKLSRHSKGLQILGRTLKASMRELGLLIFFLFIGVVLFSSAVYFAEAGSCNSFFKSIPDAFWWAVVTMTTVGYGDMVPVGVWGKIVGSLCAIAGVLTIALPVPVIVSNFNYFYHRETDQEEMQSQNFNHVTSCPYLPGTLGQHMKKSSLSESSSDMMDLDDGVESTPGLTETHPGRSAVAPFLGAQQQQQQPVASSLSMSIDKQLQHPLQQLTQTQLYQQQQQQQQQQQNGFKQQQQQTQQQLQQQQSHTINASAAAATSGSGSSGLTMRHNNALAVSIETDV
T2 sequence (P42260 32-908): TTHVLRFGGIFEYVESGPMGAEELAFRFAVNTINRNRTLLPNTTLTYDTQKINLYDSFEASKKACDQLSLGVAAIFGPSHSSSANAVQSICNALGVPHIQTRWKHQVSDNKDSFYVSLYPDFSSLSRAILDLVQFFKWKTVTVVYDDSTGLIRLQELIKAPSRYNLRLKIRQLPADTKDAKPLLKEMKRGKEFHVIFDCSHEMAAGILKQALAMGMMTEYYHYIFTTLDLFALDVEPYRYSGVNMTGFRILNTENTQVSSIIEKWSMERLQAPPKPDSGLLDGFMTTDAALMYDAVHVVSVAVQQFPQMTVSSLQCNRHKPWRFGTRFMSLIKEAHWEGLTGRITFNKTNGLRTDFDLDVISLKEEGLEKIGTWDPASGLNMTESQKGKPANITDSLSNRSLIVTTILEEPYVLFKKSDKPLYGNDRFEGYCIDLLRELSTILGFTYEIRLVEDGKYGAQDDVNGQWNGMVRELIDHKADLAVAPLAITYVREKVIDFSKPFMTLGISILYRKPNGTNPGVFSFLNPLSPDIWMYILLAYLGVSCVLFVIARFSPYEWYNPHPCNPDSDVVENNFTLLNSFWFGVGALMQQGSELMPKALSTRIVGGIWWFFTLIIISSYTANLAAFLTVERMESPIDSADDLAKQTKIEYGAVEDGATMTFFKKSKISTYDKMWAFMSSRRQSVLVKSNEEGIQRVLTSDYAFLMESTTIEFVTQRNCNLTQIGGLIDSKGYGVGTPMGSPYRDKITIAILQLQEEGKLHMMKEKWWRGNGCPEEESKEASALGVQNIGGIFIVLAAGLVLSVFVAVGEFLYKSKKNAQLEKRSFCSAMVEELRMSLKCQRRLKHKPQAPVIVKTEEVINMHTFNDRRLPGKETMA
T1 sequence (P08510 other isoform, or with tags, fused parts or gaps DEL6-46): as the sequence (P08510 other isoform, or with tags, fused parts or gaps DEL6-46/E422C/T449V) above, with C381E, V408T counted along it

CC[N+](CC)(CC)CC(=O)Nc1ccc(/N=N/c2ccc(NC(=O)CCl)cc2)cc1 [CAQ]
water solubility compared with AAQ [1]: less water-soluble
light-sensitivity conferred on channel [2]: conferred light-sensitivity
death of neurons ([3]; 15 min): ~10%
loss of neurons ([3]; 60 min): ~15%

N[C@@H](CC(CCCC(=O)NCC(=O)Nc1ccc(/N=N/c2ccc(NC(=O)CN3C(=O)C=CC3=O)cc2)cc1)C(=O)O)C(=O)O (stereo in doubt) [MAG-1]
light sensitivity conferred (Ca2+ increase at 380 nm, decrease at 500 nm) ([4]; wildtype iGluR6 (WT)): not on wildtype iGluR6
fraction in the cis-state ([5]; 380 nm): 93.0±0.6%
fraction in the trans-state ([5]; 500 nm): 83.0±0.6%
solubility [1]: 0.2 mM (≈ 124 µg/mL)
cell death compared with controls [6]: no difference; also recorded: no increase in cell death

COc1ccc(-c2ccc(=N)n(CCCC(=O)O)n2)cc1 [Gabazine, reference compound]
basal firing rate of Purkinje cells [7]: ~15 Hz

O=c1[nH]c2cc([N+](=O)[O-])c([N+](=O)[O-])cc2[nH]c1=O [DNQX, 6,7-dinitroquinoxaline-2,3-[1H,4H]-dione, reference compound]
solubility [1]: 4 mM (≈ 1010 µg/mL)

CC[N+](CC)(CC)CC(=O)Nc1ccc(/N=N/c2ccc(NC(=O)CN3C(=O)C=CC3=O)cc2)cc1 [MAL-AZO-QA]
wavelength most effective in unblocking channels ([8]; action spectrum, inside-out patches): 380 nm
return of unblocked channels to the blocked state in the dark ([8]; dark): > 5 min
τ1 of current block in dark (biexponential) ([8]; dark): 0.49 min
τ2 of current block in dark (biexponential) ([8]; dark): 4.79 min
current unblocked by ultraviolet light ([8]; inside-out patch, oocytes treated with 100 μM for 30 min): ≤ 1 nA
reduction of voltage-gated Shaker current ([8]; outside-out patch, 10 μM, over 4 min): > 60%
time for unblock and re-block to nearly reach steady-state ([8]; standard epifluorescence illumination): ≤ 5 s
time to silence spontaneous action potentials ([9]; 390 nm light): ≤ 3 s
decrease in number of action potentials elicited by a depolarizing step ([9]; 390 nm light, n=4): 79%
onset of restored activity in the dark after silencing ([9]; dark): > 30 s
effect of light on treated neurons expressing GFP without the Shaker channels ([9]; n=4): no effect
percent of the outward current that could be photoswitched [10]: 2±5%

Cl.N[C@@H](C[C@@H](CCCC(=O)NCC(=O)Nc1ccccc1)C(=O)O)C(=O)O [tether model 3]
maximal response compared with saturating glutamate [4]: similar
EC50 ([4]; FURA-2-AM calcium imaging, HEK293, read-out: EC50 for activating iGluR6): 180 µM
solubility [1]: 10 mM

Source: patent US8114843B2, “Photoreactive regulator of protein function and methods of use thereof” (The Regents of the University of California, priority 2005, dated 2012)
